According to US20070179152A1, “Combination therapy for the treatment of neoplasms” (priority 2003, published 2007):
Counter-ions that a name gives are not always drawn. Like-named read-outs stand apart in the source and are kept apart here.

Key:
Format in all cases: cell-based
HCT116 cells = experiment: Anti-proliferation assay (Alamar Blue metabolism), HCT116; settings: Homo sapiens, read-out: Percent inhibition of Alamar Blue Metabolism
Protocol: (§1) Itraconazole was obtained from […].). Stock solutions (1000×) of each compound were prepared in DMSO and stored at -20° C. Master stock plates of 2-fold serial dilutions of individual compounds were prepared in 384-well plates. Combination matrices of test compounds were generated from these master stock plates by dilution into growth media described above. […] The combination matrices were used immediately and discarded. The anti-proliferation assays were performed in 384 well plates. […] Cells were diluted in culture media such that 3,000 SKMEL cells, or 1,500 cells for all the other cell lines, were delivered in 35 μl of media into each assay well. […] Then, 4.5 μl of 10× stock solutions from the combination matrices were added to 40 μl of culture media. […] Quantification, using the LJL Analyst AD reader (LJL Biosystems), was taken in the middle of the well with high attenuation, a 100 msec read time, an excitation filter at 530 nm, and an emission filter at 575 nm. For some experiments, quantification was performed using a Wallac Victor^2 reader. Measurements were taken at the top of the well with stabilized energy lamp control; a 100 msec read time, an excitation filter at 530 nm, and an emission filter at 590 nm.

SKMEL-28 cells = experiment: Anti-proliferation assay (Alamar Blue metabolism), SKMEL-28; settings: Homo sapiens, SK-MEL-28; read-out: Percent inhibition of Alamar Blue Metabolism
Protocol: as §1

A549 cells = experiment: Anti-proliferation assay (Alamar Blue metabolism), A549; settings: Homo sapiens, read-out: Percent inhibition of Alamar Blue Metabolism
Protocol: as §1

DU145 cells = experiment: Anti-proliferation assay (Alamar Blue metabolism), DU145; settings: Homo sapiens, DU-145; read-out: Percent inhibition of Alamar Blue Metabolism
Protocol: as §1

With `CCC(C)n1ncn(-c2ccc(N3CCN(c4ccc(OCC5COC(Cn6cncn6)(c6ccc(Cl)cc6Cl)O5)cc4)CC3)cc2)c1=O` (centres unmarked) [Itraconazole, itraconazole] the inhibition at 0.44 µM (HCT116 cells; HCT-116, amiodarone 0 μM, itraconazole 0.44 μM) was -2.8%, the inhibition at 0.87 µM (HCT116 cells; HCT-116, amiodarone 0 μM, itraconazole 0.87 μM) was 1.9% and the inhibition at 1.7 µM (HCT116 cells; HCT-116, amiodarone 0 μM, itraconazole 1.7 μM) was 8.5%. It also gave an inhibition at 3.5 µM (HCT116 cells; HCT-116, amiodarone 0 μM, itraconazole 3.5 μM) of 17.5%, an inhibition at 7 µM (HCT116 cells; HCT-116, amiodarone 0 μM, itraconazole 7 μM) of 20.4% and an inhibition at 14 µM (HCT116 cells; HCT-116, amiodarone 0 μM, itraconazole 14 μM) of 19.1%. It also gave an inhibition at 28 µM (HCT116 cells; HCT-116, amiodarone 0 μM, itraconazole 28 μM) of 16%, an inhibition at […] (HCT116 cells; HCT-116, amiodarone 0 μM, itraconazole […]) of -0.7% and an inhibition at 0.44 µM (HCT116 cells; HCT-116, itraconazole 0.44 μM, bepridil 0 μM) of -1.4%. For the same compound, the inhibition at 0.44 µM (HCT116 cells; HCT-116, itraconazole 0.44 μM, nicardipine 0 μM) was -0.5%, the inhibition at 0.87 µM (HCT116 cells; HCT-116, itraconazole 0.87 μM, bepridil 0 μM) was 13.3% and the inhibition at 0.87 µM (HCT116 cells; HCT-116, itraconazole 0.87 μM, nicardipine 0 μM) was 12.3%. It also gave an inhibition at 1.7 µM (HCT116 cells; HCT-116, itraconazole 1.7 μM, bepridil 0 μM) of 26.4%, an inhibition at 1.7 µM (HCT116 cells; HCT-116, itraconazole 1.7 μM, nicardipine 0 μM) of 15.4% and an inhibition at 3.5 µM (HCT116 cells; HCT-116, itraconazole 3.5 μM, bepridil 0 μM) of 30.3%. For the same compound, the inhibition at 3.5 µM (HCT116 cells; HCT-116, itraconazole 3.5 μM, nicardipine 0 μM) was 20.1%, the inhibition at 7 µM (HCT116 cells; HCT-116, itraconazole 7 μM, bepridil 0 μM) was 33.1% and the inhibition at 7 µM (HCT116 cells; HCT-116, itraconazole 7 μM, nicardipine 0 μM) was 32.7%. For the same compound, the inhibition at 14 µM (HCT116 cells; HCT-116, itraconazole 14 μM, bepridil 0 μM) was 17.8%, the inhibition at 14 µM (HCT116 cells; HCT-116, itraconazole 14 μM, nicardipine 0 μM) was 19.8% and the inhibition at 28 µM (HCT116 cells; HCT-116, itraconazole 28 μM, bepridil 0 μM) was 17.2%. It also gave an inhibition at 28 µM (HCT116 cells; HCT-116, itraconazole 28 μM, nicardipine 0 μM) of 22.4%, an inhibition at […] (HCT116 cells; HCT-116, itraconazole […], bepridil 0 μM) of 5.8% and an inhibition at […] (HCT116 cells; HCT-116, itraconazole […], nicardipine 0 μM) of 3%. It also gave an inhibition at 0.44 µM (SKMEL-28 cells) of 1.5%, an inhibition at 0.87 µM (SKMEL-28 cells) of 4.4% and an inhibition at 1.7 µM (SKMEL-28 cells) of 6.6%. For the same compound, the inhibition at 3.5 µM (SKMEL-28 cells) was 10.4%, the inhibition at 7 µM (SKMEL-28 cells) was 12.6% and the inhibition at 14 µM (SKMEL-28 cells) was 14%. The inhibition at 28 µM (SKMEL-28 cells) was 15%, the inhibition at 0.44 µM (A549 cells) was 3.7% and the inhibition at 0.87 µM (A549 cells) was 11.5%. The inhibition at 1.7 µM (A549 cells) was 2.8%, the inhibition at 3.5 µM (A549 cells) was 8% and the inhibition at 7 µM (A549 cells) was 6.3%. For the same compound, the inhibition at 14 µM (A549 cells) was 7.4%, the inhibition at 28 µM (A549 cells) was 9.7% and the inhibition at 0.44 µM (DU145 cells) was -1.6%. The inhibition at 0.87 µM (DU145 cells) was 4.9%, the inhibition at 1.7 µM (DU145 cells) was -4.2% and the inhibition at 3.5 µM (DU145 cells) was -10.1%. The inhibition at 7 µM (DU145 cells) was -13%, the inhibition at 14 µM (DU145 cells) was -4.3% and the inhibition at 28 µM (DU145 cells) was -4.6%.

`CC(C)COCC(CN(Cc1ccccc1)c1ccccc1)N1CCCC1` (stereo not drawn) [Bepridil, beta-((2-methylpropoxy)methyl)-N-phenyl-N-(phenylmethyl)-1-pyrrolidineethanamine] was tested, and the inhibition at 1.5 µM (HCT116 cells; HCT-116, itraconazole 0 μM, bepridil 1.5 μM) was 5.1%, the inhibition at 3 µM (HCT116 cells; HCT-116, itraconazole 0 μM, bepridil 3 μM) was 17.4% and the inhibition at 6.1 µM (HCT116 cells; HCT-116, itraconazole 0 μM, bepridil 6.1 μM) was 54%. The inhibition at 12 µM (HCT116 cells; HCT-116, itraconazole 0 μM, bepridil 12 μM) was 33.2%, the inhibition at 24 µM (HCT116 cells; HCT-116, itraconazole 0 μM, bepridil 24 μM) was 79% and the inhibition at 48 µM (HCT116 cells; HCT-116, itraconazole 0 μM, bepridil 48 μM) was 96.4%.

Compound `COC(=O)C1=C(C)NC(C)=C(C(=O)OCCN(C)Cc2ccccc2)C1c1cccc([N+](=O)[O-])c1` (centres unmarked) [Nicardipine, 2-(benzyl-methylamino)ethyl methyl 1,4-dihydro-2,6-dimethyl-4-(m-nitrophenyl)-3,5-pyridinedicarboxylate monohydrochloride] has an inhibition at 0.3 µM (HCT116 cells; HCT-116, itraconazole 0 μM, nicardipine 0.3 μM) of 2.6%, an inhibition at 0.61 µM (HCT116 cells; HCT-116, itraconazole 0 μM, nicardipine 0.61 μM) of 1.4% and an inhibition at 1.2 µM (HCT116 cells; HCT-116, itraconazole 0 μM, nicardipine 1.2 μM) of 2.5%. For the same compound, the inhibition at 2.4 µM (HCT116 cells; HCT-116, itraconazole 0 μM, nicardipine 2.4 μM) was 5.2%, the inhibition at 4.8 µM (HCT116 cells; HCT-116, itraconazole 0 μM, nicardipine 4.8 μM) was 7.5% and the inhibition at 9.7 µM (HCT116 cells; HCT-116, itraconazole 0 μM, nicardipine 9.7 μM) was 9.7%. For the same compound, the inhibition at 19 µM (HCT116 cells; HCT-116, itraconazole 0 μM, nicardipine 19 μM) was 25.2% and the inhibition at 39 µM (HCT116 cells; HCT-116, itraconazole 0 μM, nicardipine 39 μM) was 81.7%.
